Reference: patent publication US9023860B2, “Pro-drugs for controlled release of biologically active compounds” (Signature Therapeutics, Inc., priority 2007, dated 2015)
Counter-ions that a name gives are not always drawn. Like-named read-outs stand apart in the source and are kept apart here.

Assay: In Vitro Cyclization Assay (disappearance of test compound in buffer, half-life of degradation)
Type: physicochemical
Settings: 20° C., approximately 2.2 mM, read-out: Ave (half-life of degradation) (converted)
Experimental: 1. In Vitro Cyclization Assay
This assay measures the ability of a test compound of the present invention to cyclize in vitro. Also determined is the time required to effect such cyclization.
Test compounds are dissolved (approximately 2.2 mM) in 50 mM phosphate/citrate buffers at a variety of pHs, including pH 7.4 and pH 8.5. The disappearance of the test compounds is observed over time by incubating the solutions at 20° C. and periodically quantifying the concentration of the remaining compound. Since the rate of disappearance follows first order kinetics, the half-life of degradation is calculated from the slope of the regression of natural logarithm transformed data on time. For pH 10 half-life results, CPBG is used: The half-life assay is conducted in phosphate/citrate buffer to test compound stability at pH 6, pH 7.4 and pH 8.5, but citrate/phosphate/glycine buffer is used when compounds were tested at pH 10.

[1] = nominal pH 6, 50 mM phosphate/citrate buffer
[2] = nominal pH 7.4, 50 mM phosphate/citrate buffer
[3] = nominal pH 8.5, 50 mM phosphate/citrate buffer
[4] = nominal pH 10, citrate/phosphate/glycine buffer

Row | SMILES | half-life at 2.2 mM [1] | half-life at 2.2 mM [2] | half-life at 2.2 mM [3] | half-life at 2.2 mM [4]
1 | CN(CCCN)C(=O)Oc1ccc2c3c1O[C@H]1C(=O)CC[C@H]4[C@@H](C2)N(C)CC[C@]314 [Comparison, Hydromorphone 3-(N-methyl-N-(3-amino)propyl)carbamate Hydrochloride, reference compound] | 3190 h | 224 h | 74 h | 1.33 h
2 | CN(CC(F)CN)C(=O)Oc1ccc2c3c1O[C@H]1C(=O)CC[C@H]4[C@@H](C2)N(C)CC[C@]314 (stereo partly drawn) [Example 2, Hydromorphone 3-(N-methyl-N-(3-amino-2-fluoro)propyl)carbamate Hydrochloride] | 334 h | 18.1 h | 5.18 h | 1.68 h
3 | CN(CC(F)(F)CN)C(=O)Oc1ccc2c3c1OC1C(=O)CCC4C(C2)N(C)CCC314 (stereo not drawn) [Example 1, Hydromorphone 3-(N-methyl-N-(3-amino-2,2-difluoro)propyl)carbamate Hydrochloride] | 99.1 h | 9.43 h | 6.13 h | 8.04 h
